Measurements from patent US7138361B2, “Herbicidal heterocycles” (E. I. du Pont de Nemours and Company, priority 2000, dated 2006).

Key:
Type in all cases: in vivo
[1] = tested on: morning glory (Ipomoea hederacea); assay: Test B postemergence; settings: 13 to 15 days
Summary of the method: (§1)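 Post-treatment, species sat 13–15 days under greenhouse conditions before visual scoring against controls, 0 (no effect) through 100 (complete control). Application preemergence to sown seeds or postemergence at 1- to 4-leaf stage, using a non-phytotoxic solvent/surfactant formulation.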

[2] = tested on: blackgrass (Alopecurus myosuroides); assay: Test B postemergence; settings: 13 to 15 days
Summary of the method: as §1

[3] = tested on: cocklebur (Xanthium strumarium); assay: Test B postemergence; settings: 13 to 15 days
Summary of the method: as §1

[4] = tested on: wild oat (Avena fatua); assay: Test B postemergence; settings: 13 to 15 days
Summary of the method: as §1

[5] = tested on: velvetleaf (Abutilon theophrasti); assay: Test B postemergence; settings: 13 to 15 days
Summary of the method: as §1

[6] = tested on: barnyardgrass (Echinochloa crus-galli); assay: Test B postemergence; settings: 13 to 15 days
Summary of the method: as §1

[7] = tested on: Surinam grass (Brachiaria decumbens); assay: Test B postemergence; settings: 13 to 15 days
Summary of the method: as §1

[8] = tested on: pigweed (Amaranthus retroflexus); assay: Test B postemergence; settings: 13 to 15 days
Summary of the method: as §1

[9] = tested on: wheat (Triticum aestivum); assay: Test B postemergence; settings: 13 to 15 days
Summary of the method: as §1

[10] = tested on: giant foxtail (Setaria faberii); assay: Test B postemergence; settings: 13 to 15 days
Summary of the method: as §1

[11] = tested on: crabgrass (Digitaria sanguinalis); assay: Test B postemergence; settings: 13 to 15 days
Summary of the method: as §1

[12] = tested on: corn (Zea mays); assay: Test B postemergence; settings: 13 to 15 days
Summary of the method: as §1

[13] = tested on: lambsquarters (Chenopodium album); assay: Test B postemergence; settings: 13 to 15 days
Summary of the method: as §1

[14] = tested on: morning glory (Ipomoea hederacea); assay: Test B preemergence
Summary of the method: as §1

[15] = tested on: cocklebur (Xanthium strumarium); assay: Test B preemergence
Summary of the method: as §1

[16] = tested on: rice (Oryza saliva); assay: Test B preemergence
Summary of the method: as §1

[17] = tested on: barnyardgrass (Echinochloa crus-galli); assay: Test B preemergence
Summary of the method: as §1

[18] = tested on: Surinam grass (Brachiaria decumbens); assay: Test B preemergence
Summary of the method: as §1

[19] = tested on: pigweed (Amaranthus retroflexus); assay: Test B preemergence
Summary of the method: as §1

[20] = tested on: giant foxtail (Setaria faberii); assay: Test B preemergence
Summary of the method: as §1

[21] = tested on: crabgrass (Digitaria sanguinalis); assay: Test B preemergence
Summary of the method: as §1

[22] = tested on: corn (Zea mays); assay: Test B preemergence
Summary of the method: as §1

[23] = tested on: lambsquarters (Chenopodium album); assay: Test B preemergence; settings: preemergence; Rate 125 g/ha; scale 0 to 100, 0 no effect, 100 complete control
Summary of the method: as §1

[24] = tested on: smallflower flatsedge (Cyperus difformis); assay: Test B flooded paddy test; settings: Rate 1000 g/ha, scale of 0 to 100 where 0 is no effect and 100 is complete control, visually evaluated after 13 to 15 days
Method: (§2) At the same time, plants selected from these crop and weed species and also blackgrass (Alopecurus myosuroides), wheat (Triticum aestivum) and wild oat (Avena fatua) were treated with postemergence applications of test chemicals formulated in the same manner. Plants ranged in height from 2 to 18 cm (1- to 4-leaf stage) for postemergence treatments. Plant species in the flooded paddy test consisted of rice (Oryza saliva), smallflower flatsedge (Cyperus difformis), duck salad (Heteranthera limosa) and barnyardgrass (Echinochloa crus-galli) grown to the 2-leaf stage for testing. Treated plants and controls were maintained in a greenhouse for 13 to 15 days, after which time all species were compared to controls and visually evaluated. Plant response ratings, summarized in Table B, are based on a scale of 0 to 100 where 0 is no effect and 100 is complete control. A dash (-) response means no test result.

[25] = tested on: rice (Oryza saliva); assay: Test B flooded paddy test; settings: Rate 1000 g/ha, scale of 0 to 100 where 0 is no effect and 100 is complete control, visually evaluated after 13 to 15 days
Method: as §2

[26] = tested on: duck salad (Heteranthera limosa); assay: Test B flooded paddy test; settings: Rate 1000 g/ha, scale of 0 to 100 where 0 is no effect and 100 is complete control, visually evaluated after 13 to 15 days
Method: as §2

[27] = tested on: barnyardgrass (Echinochloa crus-galli); assay: Test B flooded paddy test; settings: Rate 1000 g/ha, scale of 0 to 100 where 0 is no effect and 100 is complete control, visually evaluated after 13 to 15 days
Method: as §2

[28] = tested on: velvetleaf (Abutilon theophrasti); assay: Test B preemergence
Summary of the method: as §1

[29] = Rate 125 g/ha, scale 0 (no effect) to 100 (complete control)
[30] = Rate 500 g/ha, scale 0 to 100, 0 is no effect, 100 is complete control
[31] = Preemergence, Rate 500 g/ha, scale 0 to 100, 0 no effect, 100 complete control
[32] = preemergence, Rate 125 g/ha, scale 0 to 100, 0 no effect, 100 complete control
[33] = preemergence, Rate 125 g/ha, scale of 0 to 100 where 0 is no effect and 100 is complete control, 13 to 15 days

O=C1C(n2cccn2)SCN1c1cccc(C(F)(F)F)c1 (stereo not drawn) [Compound 18]
60: Plant response rating, Lambsquarters [13, 29]
10: Plant response rating, Morningglory [1, 29] | Plant response rating, Morningglory [1, 30]
70: Plant response rating, Lambsquarters [13, 30]
0: Plant response rating, Blackgrass [2, 29] | Plant response rating, Blackgrass [2, 30] | Plant response rating, Cocklebur [3, 29] | Plant response rating, Wild Oat [4, 29] | Plant response rating, Wild Oat [4, 30] | Plant response rating, Velvetleaf [5, 29] | Plant response rating, Barnyardgrass [6, 29] | Plant response rating, Barnyardgrass [6, 30] | Plant response rating, Surinam grass [7, 29] | Plant response rating, Surinam grass [7, 30] | Plant response rating, Pigweed [8, 29] | Plant response rating, Pigweed [8, 30] | Plant response rating, Wheat [9, 29] | Plant response rating, Wheat [9, 30] | Plant response rating, Foxtail, Giant [10, 29] | Plant response rating, Foxtail, Giant [10, 30] | Plant response rating, Crabgrass [11, 29] | Plant response rating, Crabgrass [11, 30] | Plant response rating, Corn [12, 29] | Plant response rating, Corn [12, 30] | Plant response rating, Morningglory [14, 31] | Plant response rating, Morningglory [14, 32] | Plant response rating, Cocklebur [15, 31] | Plant response rating, Cocklebur [15, 32] | Plant response rating, Rice [16, 31] | Plant response rating, Rice [16, 32] | Plant response rating, Barnyardgrass [17, 31] | Plant response rating, Barnyardgrass [17, 32] | Plant response rating, Surinam grass [18, 31] | Plant response rating, Surinam grass [18, 32] | Plant response rating, Pigweed [19, 31] | Plant response rating, Pigweed [19, 32] | Plant response rating, Foxtail, Giant [20, 31] | Plant response rating, Foxtail, Giant [20, 32] | Plant response rating, Crabgrass [21, 31] | Plant response rating, Crabgrass [21, 32] | Plant response rating, Corn [22, 31] | Plant response rating, Corn [22, 32] | Plant response rating, Lambsquarters [23] | Plant response rating, Flatsedge [24] | Plant response rating, Rice [25] | Plant response rating, Ducksalad [26] | Plant response rating, Barnyardgrass [27]
20: Plant response rating, Cocklebur [3, 30] | Plant response rating, Velvetleaf [5, 30]

CCOc1ccn(C2CCN(c3cccc(C(F)(F)F)c3)C2=O)n1 (stereo not drawn) [Compound 61]
20: Plant response rating, Flatsedge [24]
30: Plant response rating, Ducksalad [26]
0: Plant response rating, Morningglory [1, 29] | Plant response rating, Morningglory [1, 30] | Plant response rating, Blackgrass [2, 29] | Plant response rating, Blackgrass [2, 30] | Plant response rating, Cocklebur [3, 29] | Plant response rating, Cocklebur [3, 30] | Plant response rating, Wild Oat [4, 29] | Plant response rating, Wild Oat [4, 30] | Plant response rating, Velvetleaf [5, 29] | Plant response rating, Velvetleaf [5, 30] | Plant response rating, Barnyardgrass [6, 29] | Plant response rating, Barnyardgrass [6, 30] | Plant response rating, Surinam grass [7, 29] | Plant response rating, Surinam grass [7, 30] | Plant response rating, Pigweed [8, 29] | Plant response rating, Pigweed [8, 30] | Plant response rating, Wheat [9, 29] | Plant response rating, Wheat [9, 30] | Plant response rating, Foxtail, Giant [10, 29] | Plant response rating, Foxtail, Giant [10, 30] | Plant response rating, Crabgrass [11, 29] | Plant response rating, Crabgrass [11, 30] | Plant response rating, Corn [12, 29] | Plant response rating, Corn [12, 30] | Plant response rating, Lambsquarters [13, 29] | Plant response rating, Lambsquarters [13, 30] | Plant response rating, Morningglory [14, 31] | Plant response rating, Morningglory [14, 33] | Plant response rating, Cocklebur [15, 31] | Plant response rating, Cocklebur [15, 33] | Plant response rating, Rice [16, 31] | Plant response rating, Rice [16, 33] | Plant response rating, Velvetleaf [28, 31] | Plant response rating, Velvetleaf [28, 33] | Plant response rating, Barnyardgrass [17, 31] | Plant response rating, Barnyardgrass [17, 33] | Plant response rating, Surinam grass [18, 31] | Plant response rating, Surinam grass [18, 33] | Plant response rating, Pigweed [19, 31] | Plant response rating, Pigweed [19, 33] | Plant response rating, Foxtail, Giant [20, 31] | Plant response rating, Foxtail, Giant [20, 33] | Plant response rating, Crabgrass [21, 31] | Plant response rating, Crabgrass [21, 33] | Plant response rating, Corn [22, 31] | Plant response rating, Corn [22, 33] | Plant response rating, Rice [25] | Plant response rating, Barnyardgrass [27]
